# Experiments:
# T-47D cells = test: 6-day cell proliferation assay, T-47D; format: cell-based, human; conditions: Homo sapiens, T47D, 144 h, proliferation over 6 days
# Protocol: (§1) Human breast cancer cell lines MCF7, BT-474, T-47D, MDA-MB-453, MDA-MB-231, Hs 578T, HCC38, SK-BR-3, and DU4475 were purchased from the American Type Culture Collection (ATCC) and no additional cell authentication was performed. The TSE human breast cancer cell line was supplied by Dr. Steven Abcouwer (University of Michigan). All breast cancer cells were cultured at 37° C. under a 5% CO2 atmosphere in RPMI 1640 medium containing 2 mM glutamine (Gibco) and supplemented with 10% fetal bovine serum (FBS) (Gibco). The 293T cell line (ATCC) used for generating lentivirus particles was cultured as above but using DMEM, high glucose (Gibco).
# (§2) Culture medium was added to 12-well plates (1 ml/well) and wells were seeded with cells at Day 0 as follows. MCF7, T-47D, BT-474, HCC38 cells: […] cells/well. MDA-MB-453 and MDA-MB-231 cells: 1×10^4 cells/well. TSE and Hs 578T cells: 0.3×10^4 cells/well. After 16 hours, culture medium was replaced with fresh medium supplemented with appropriate concentrations of inhibitors and was subsequently replaced every 48 hours. On Day 6 cells were trypsinized and suspended in an appropriate volume of culture medium, and the total number of cells per well was determined using a hemocytometer or a TC20 Automated Cell Counter (Bio-Rad).
# HCC38 cells = test: 6-day cell proliferation assay, HCC38; format: cell-based, human; conditions: Homo sapiens, 144 h; HCC38, proliferation over 6 days
# Protocol: as §1, §2
# [1] = molecular target: T1, recombinant full-length human GLS2 (Homo sapiens, UniProt Q9UI32); test: Real-time recombinant glutaminase activity assay, GLS2; format: biochemical; conditions: different concentrations
# T1 construct: GLS2 (residues 38 to 602) in E. coli; inferred from pQE80 vector and Ni-NTA/imidazole purification; made in house; host or cells: E. coli BL21(DE3)
# T1 sequence (Q9UI32 38-602): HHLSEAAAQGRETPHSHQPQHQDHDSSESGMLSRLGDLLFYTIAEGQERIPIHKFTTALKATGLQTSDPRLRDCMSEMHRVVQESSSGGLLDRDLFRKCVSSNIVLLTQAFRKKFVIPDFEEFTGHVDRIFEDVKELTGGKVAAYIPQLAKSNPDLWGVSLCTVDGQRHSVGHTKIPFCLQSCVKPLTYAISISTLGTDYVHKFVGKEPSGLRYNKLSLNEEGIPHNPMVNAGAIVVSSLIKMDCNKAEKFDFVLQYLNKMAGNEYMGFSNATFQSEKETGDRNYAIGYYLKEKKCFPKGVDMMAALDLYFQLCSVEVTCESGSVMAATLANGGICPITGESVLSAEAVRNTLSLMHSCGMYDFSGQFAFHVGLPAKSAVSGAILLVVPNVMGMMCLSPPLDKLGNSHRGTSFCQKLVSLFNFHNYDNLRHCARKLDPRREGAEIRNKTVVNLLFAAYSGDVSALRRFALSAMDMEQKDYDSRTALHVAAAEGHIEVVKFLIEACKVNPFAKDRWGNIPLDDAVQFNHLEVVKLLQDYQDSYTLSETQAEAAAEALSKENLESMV
# Protocol: Real-time monitoring of glutaminase activity through NADH production was performed on a Cary Eclipse fluorescence spectrometer. The excitation and emission wavelengths were set at 340 nm and 460 nm, respectively. To a 1 ml cuvette, 900 μl of assay buffer was added, followed by 10 μl of GDH, 40 μl of 50 mM NAD and 20 μl of either DMSO or various dilutions of 968. Then, 100 μl of either 100 nM GAC or 500 nM GLS2 was added to this mixture and the fluorescence emission was monitored in real time. After 30 s, 200 μl of a mixture of glutamine and K2HPO4 was added such that the final concentrations of K2HPO4 and glutamine were 100 mM and 20 mM, respectively. The initial velocity of glutamine hydrolysis was obtained from the slopes of the linear portion of the kinetic curve.
# Recombinant GAC and GLS2 were expressed in E. coli as described in Huang et al., “Characterization of the Interactions of Potent Allosteric Inhibitors with Glutaminase C, a Key Enzyme in Cancer Cell Glutamine Metabolism,” J. Biol. Chem. 293:3535-3545 (2018), which is hereby incorporated by reference in its entirety. Briefly, E. coli strain BL21(DE3) (Thermo Fisher Scientific) were transformed with vector pQE80-GAC-72-598 or with pQE80-GLS2-38-602 to express the processed forms of GAC and GLS2, respectively. For both constructs, expression was induced with 0.3 mM IPTG for 20 hours at 18° C., and cells were then harvested by centrifugation and lysed by sonication in binding buffer (500 mM NaCl, 50 mM Tris-HCl pH 8.5, 10 mM imidazole, 5 mM β-mercaptoethanol, 1 mM benzamidine chloride). The lysate was centrifuged, and the supernatant applied to a Ni-NTA column which was then washed with 100 column volumes of binding buffer followed by 10 volumes of wash buffer (500 mM NaCl, 50 mM Tris-HCl pH 8.5, 40 mM imidazole, 5 mM β-mercaptoethanol, 1 mM benzamidine chloride). Protein was eluted with 5 column volumes of elution buffer (500 mM NaCl, 300 mM imidazole-HCl pH 7.5, 5 mM β-mercaptoethanol, 1 mM benzamidine chloride). The eluate was centrifugally concentrated and then further purified by FPLC using a HiLoad 16/600 Superdex 200 column (GE Healthcare) with 150 mM NaCl, 5 mM Tris-HCl pH 7.5.
# MDA-MB-453 cells = test: 6-day cell proliferation assay, MDA-MB-453; format: cell-based, human; conditions: Homo sapiens, 144 h; MDA-MB-453, proliferation over 6 days
# Protocol: as §1, §2
# TSE cells = test: 6-day cell proliferation assay, TSE; format: cell-based, human; conditions: Homo sapiens, 144 h; TSE, proliferation over 6 days
# Protocol: as §1, §2
# BT-474 cells = test: 6-day cell proliferation assay, BT-474; format: cell-based, human; conditions: Homo sapiens, 144 h; BT-474, proliferation over 6 days
# Protocol: as §1, §2
# MDA-MB-231 cells = test: 6-day cell proliferation assay, MDA-MB-231; format: cell-based, human; conditions: Homo sapiens, 144 h; MDA-MB-231, proliferation over 6 days
# Protocol: as §1, §2
# MCF7 cells = test: 6-day cell proliferation assay, MCF7; format: cell-based, human; conditions: Homo sapiens, 144 h; MCF7, proliferation over 6 days
# Protocol: as §1, §2
# Hs 578T cells = test: 6-day cell proliferation assay, Hs 578T; format: cell-based, human; conditions: Homo sapiens, 144 h, proliferation over 6 days
# Protocol: as §1, §2
# [2] = test system: GLS2 protein levels in TSE cells; test: Western blot of GLS2 in TSE cells treated with hypomethylating agent; format: cell-based, human; conditions: 48 hours
# Protocol: Cells, or fractionated mitochondria and nuclei, were lysed with ice-cold lysis buffer (50 mM HEPES pH 8.0, 150 mM NaCl, 25 mM NaF, 1% (v/v) Triton X-100, 1 mM MgCl2, 50 mM β-glycerophosphate, 30 μg/ml leupeptin, 5 μg/ml aprotinin), and insoluble debris cleared by centrifugation at 4° C. Protein concentrations were determined by Bradford assay (Bio-Rad), and lysate was then boiled for 10 min in reducing SDS-sample buffer. Lysate proteins (20 μg total protein/lane, except for the cell fractionation experiment in which 5 μg total protein/lane was used) were then resolved on Novex 12% Tris-Glycine Mini Gels (Thermo Fisher Scientific) and transferred to PVDF membrane (PerkinElmer). Membranes were blocked in 7% BSA in Tris-Buffered Saline plus 0.05% TWEEN 20 (TBST) for 1 hour at room temperature and probed overnight at 4° C. in primary antibody solution in TBST (see Table 3 for antibody dilutions). They were then washed with TBST and incubated in TBST containing 25% (v/v) non-fat dry milk powder and anti-Rabbit or anti-Mouse secondary antibody (1:2500) for 1 hour. Finally, membranes were washed in TBST, and imaged using Western Lightning Plus-ECL (PerkinElmer) and HyBlot ES autoradiography film (Denville Scientific Inc.).
# breast cancer cell lines = conditions: previously reported (Huang et al. 2018); cited from earlier work
smiles,measurement,setting,value
O=C(Cc1cccc(OC(F)(F)F)c1)Nc1ccc(CCCCc2nnc(NC(=O)Cc3ccccn3)s2)nn1 [CB-839],EC50,T-47D cells,> 1000 nM
same,EC50,HCC38 cells,49 nM
same,inhibition of recombinant GLS2 activity,[1],resistance
same,EC50,MDA-MB-453 cells,> 1000 nM
same,EC50,TSE cells,41 nM
same,EC50,BT-474 cells,> 1000 nM
same,EC50,MDA-MB-231 cells,19 nM
same,EC50,MCF7 cells,> 1000 nM
same,EC50,Hs 578T cells,31 nM
Nc1ncn([C@@H]2O[C@H](CO)[C@@H](O)[C@H]2O)c(=O)n1 [azacitidine],GLS2 protein levels,[2],increased
O=C(Cc1ccccc1)Nc1nnc(NC2CCN(c3nnc(NC(=O)Cc4ccccc4)s3)CC2)s1 [UPGL00004],"selectivity profile, basal- versus luminal-subtype cells",breast cancer cell lines,same selectivity profile

# From patent US20250275964A1, “METHODS OF INHIBITING LIVER-TYPE GLUTAMINASE, GLS2” (CORNELL UNIVERSITY, priority 2019, published 2025)
